Where two headings read alike, the source gives them in different places.
Biological target: BCL6 (Homo sapiens (Human), UniProt P41182)
Experiment: Immunofluorescence high content imaging of BCL6 degradation in T47D cells
Assay type: cell-based
Conditions: for DC50: class symbols A-D, read-out: EC50 (nM)*
Procedure: Immunofluorescence Protocol for High Cotent Imaging of BCL6
T47D cells were seeded in 100 μl volume of RPMI1640-10% FBS in a 96-well black/clear bottom plates for adherent lines (Corning #3904).
Day 1. T47D breast cancer epithelial cells were seeded at a density so that confluence is ˜70-90% at endpoint. Cells were seeded at 7K/0.1 ml/well the morning prior to the addition of exemplary bifunctional degradation compounds.
Day 2. Prepare an 11 point 3-fold serial dilution of exemplary bifunctional compound in DMSO and aliquot an appropriate volume to cell growth media to generate a 2× final concentration of exemplary bifunctional compound. Add an equal volume (0.1 ml) of 2× exemplary bifunctional compound/media mix to previously plated cells, for a final top concentration in aqueous cell growth media of 0.1 or 1 μM. Incubate for 3 days at 37° C., 5% CO2.
Day 5 Immunofluorescence. Discard cell media. Wash wells with 200 μl of room temperature phosphate-buffered saline (PBS). Prepared 4% paraformaldehyde (PFA) from 16% PFA (Electron Microscopy Sciences #15710) using 1×PBS. Fifty μl of 4% PF was added to each well and incubate for 15 minutes at room temperature to fix the cells. The PFA was aspirated and the cells washed twice with PBS (200 μl)).
Prepared 0.1% Triton X-100 in PBS using 10% triton X-100 stock. The cells were permeabilized by adding 100 ul of the 0.1% Triton X-100 in PBS to each well to permeabilize cells and incubating at room temperature for 15 minutes. Cells were washed twice with PBS.
Prepared 3% BSA/PBS (from Thermofisher #37515 Blocker BSA in TBS, 10%), and 100 ul was added to each well. The cells were incubated for at least 1 hour at room temperature.
Prepared 1% BSA/PBS using Blocker BSA/PBS, and the 3% BSA/PBS removed from the wells.
For no primary antibody controls, 50 μl 1% BSA/PBS was added.
Primary antibody (BCL6 Rb Ab, CST-14895, Cell Signaling) was diluted 1:300 in 1% BSA/PBS using Blocker BSA/PBS.
Fifty μl of primary antibody added to all remaining wells (i.e., all wells other than the primary antibody controls) and the cells were incubated overnight at 4° C. with slow orbital movement.
Day 6. Contents of the wells was removed and the cells washed four times with 200 ul PBS. 1% BSA/PBS was prepared using Blocker BSA in PBS.
Diluted secondary antibody goat anti-Rb IgG Alexa-488 1:1000, and cell mask-Alexa-647 1:3000 in 1% BSA/PBS in the same mix. Add 50 μl to each well and incubate at room temperature for 1 hour in the dark.
Cells were washed three times with 200 ul PBS, and then incubated for 10 minutes with 100 ul Hoechst dye at 1 μg/mL (20 mM stock) to stain cell nuclei. Wells were then washed with 200 μl PBS, and 100 ul of PBS was added to each well and the plate covered plate with a plastic opaque cover. Plates were stored at 4° C. and covered in aluminum foil until imaged.
Plates were equilibrated to room temperature prior to reading. The bottom of the plate was wiped with 70% isopropanol immediately prior to imaging.
10×, 4 fields/well, include Top hat smoothing in the analysis protocol.

Dmax (T47D cells) | IC50 (T47D cells) | SMILES | further results
< 50% | < 10 nM | CNC(=O)COc1cc2cc(Nc3nc(N4CCO[C@H](COc5ccc(C(=O)NC6CCC(=O)NC6=O)c(F)c5)C4)ncc3Cl)ccc2n(C(C)C)c1=O (stereo partly drawn) [compound 350, 4-{[(2S)-4-[5-chloro-4-({3-[(methylcarbamoyl)methoxy]-2-oxo-1-(propan-2-yl)-1,2-dihydroquinolin-6-yl}amino)pyrimidin-2-yl]morpholin-2-yl]methoxy}-N-(2,6-dioxopiperidin-3-yl)-2-fluorobenzamide] | –
≥ 70% | < 10 nM | CNC(=O)COc1cc2cc(Nc3nc(N4CCN(C(C)(C)C5CCN(c6cc(OC)cc(C(=O)NC7CCC(=O)NC7=O)c6F)CC5)CC4)ncc3Cl)ccc2n(C)c1=O (centres unmarked) [compound 356, 3-[4-(2-{4-[5-chloro-4-({1-methyl-3-[(methylcarbamoyl)methoxy]-2-oxo-1,2-dihydroquinolin-6-yl}amino)pyrimidin-2-yl]piperazin-1-yl}propan-2-yl)piperidin-1-yl]-N-(2,6-dioxopiperidin-3-yl)-2-fluoro-5-methoxybenzamide] | –
50 to 70% | 10 to 50 nM | CNC(=O)COc1cc2cc(Nc3nc(N4CCN(CC5CCN(c6cnc(C(=O)NC7CCC(=O)NC7=O)c(OC)c6)CC5)CC4)ncc3Cl)ccc2n(C)c1=O (centres unmarked) [compound 359, 5-[4-({4-[5-chloro-4-({1-methyl-3-[(methylcarbamoyl)methoxy]-2-oxo-1,2-dihydroquinolin-6-yl}amino)pyrimidin-2-yl]piperazin-1-yl}methyl)piperidin-1-yl]-N-(2,6-dioxopiperidin-3-yl)-3-methoxypyridine-2-carboxamide] | –
50 to 70% | < 10 nM | CNC(=O)COc1cc2cc(Nc3nc(N4CCN(CC5(F)CCN(c6ccc(C(=O)NC7CCC(=O)NC7=O)c(OC)c6)CC5)CC4)ncc3Cl)ccc2n(C)c1=O (centres unmarked) [compound 367, 4-[4-({4-[5-chloro-4-({1-methyl-3-[(methylcarbamoyl)methoxy]-2-oxo-1,2-dihydroquinolin-6-yl}amino)pyrimidin-2-yl]piperazin-1-yl}methyl)-4-fluoropiperidin-1-yl]-N-(2,6-dioxopiperidin-3-yl)-2-methoxybenzamide] | –

The remaining lines, values behind:

SMILES | Dmax (T47D cells) | IC50 (T47D cells) | further results
CCn1c(=O)c(OCC(=O)NC)cc2cc(Nc3nc(N4CCN(C(C)(C)C5CCN(c6ccc7c(c6)C(=O)N(C6CCC(=O)NC6=O)C7=O)CC5)CC4)ncc3Cl)ccc21 (centres unmarked) [compound 304, 2-{[6-({5-chloro-2-[4-(2-{1-[2-(2,6-dioxopiperidin-3-yl)-1,3-dioxo-2,3-dihydro-1H-isoindol-5-yl]piperidin-4-yl}propan-2-yl)piperazin-1-yl]pyrimidin-4-yl}amino)-1-ethyl-2-oxo-1,2-dihydroquinolin-3-yl]oxy}-N-methylacetamide] | – | – | IC50: < 10 nM; Dmax (T47D): ≥ 70%
CNC(=O)COc1cc2cc(Nc3nc(N4CCC5(CC4)CN(CC4CCN(c6ccc7c(c6)C(=O)N(C6CCC(=O)NC6=O)C7=O)CC4)C5)ncc3Cl)ccc2n(C(C)C)c1=O (centres unmarked) [compound 384] | ≥ 70% | < 10 nM | –
CNC(=O)CCN1Cc2cc(Nc3nc(N4CCN(CC5CCN(c6ccc7c(c6)C(=O)N(C6CCC(=O)NC6=O)C7=O)CC5)CC4)ncc3Cl)ccc2CC1=O (centres unmarked) [compound 395, 3-[7-({5-chloro-2-[4-({1-[2-(2,6-dioxopiperidin-3-yl)-1,3-dioxo-2,3-dihydro-1H-isoindol-5-yl]piperidin-4-yl}methyl)piperazin-1-yl]pyrimidin-4-yl}amino)-3-oxo-1,2,3,4-tetrahydroisoquinolin-2-yl]-N-methylpropanamide] | – | 1000 nM | –
CCn1c(=O)c(OCC(=O)NC)cc2cc(Nc3nc(N4CCN([C@H]5C[C@H](COc6ccc7c(c6)C(=O)N(C6CCC(=O)NC6=O)C7=O)N(C)C5)CC4)ncc3Cl)ccc21 (stereo partly drawn) [compound 371, 2-({6-[(5-chloro-2-{4-[(3S,5R)-5-({[2-(2,6-dioxopiperidin-3-yl)-1,3-dioxo-2,3-dihydro-1H-isoindol-5-yl]oxy}methyl)-1-methylpyrrolidin-3-yl]piperazin-1-yl}pyrimidin-4-yl)amino]-1-ethyl-2-oxo-1,2-dihydroquinolin-3-yl}oxy)-N-methylacetamide] | 50 to 70% | ≥ 100 nM | –
CNC(=O)COc1cc2cc(Nc3nc(N4CCC(OCCOCC(=O)N[C@H](C(=O)N5C[C@H](O)C[C@H]5C(=O)NCc5ccc(-c6scnc6C)cc5)C(C)(C)C)CC4)ncc3Cl)ccc2n(C)c1=O [compound 86, (2S,4R)-1-((S)-2-(2-(2-((1-(5-chloro-4-((1-methyl-3-(2-(methylamino)-2-oxoethoxy)-2-oxo-1,2-dihydroquinolin-6-yl)amino)pyrimidin-2-yl)piperidin-4-yl)oxy)ethoxy)acetamido)-3,3-dimethylbutanoyl)-4-hydroxy-N-(4-(4-methylthiazol-5-yl)benzyl)pyrrolidine-2-carboxamide] | – | – | DC50: 50 to 100 nM
CNC(=O)COc1cc2cc(Nc3nc(N4CCN(CC5CCN(C(=O)c6ccc(N7CCC(=O)NC7=O)c(OC)c6)CC5)CC4)ncc3Cl)ccc2n(C(C)C)c1=O [compound 408, 2-{[6-({5-chloro-2-[4-({1-[4-(2,4-dioxo-1,3-diazinan-1-yl)-3-methoxybenzoyl]piperidin-4-yl}methyl)piperazin-1-yl]pyrimidin-4-yl}amino)-2-oxo-1-(propan-2-yl)-1,2-dihydroquinolin-3-yl]oxy}-N-methylacetamide] | – | ≥ 100 nM | –
CNC(=O)COc1cc2cc(Nc3nc(N4CCN(CC5CCN(c6cccc7c6C(=O)N(C6CCC(=O)NC6=O)C7=O)CC5)CC4)ncc3Cl)ccc2n(C(C)C)c1=O (centres unmarked) [compound 311, 2-{[6-({5-chloro-2-[4-({1-[2-(2,6-dioxopiperidin-3-yl)-1,3-dioxo-2,3-dihydro-1H-isoindol-4-yl]piperidin-4-yl}methyl)piperazin-1-yl]pyrimidin-4-yl}amino)-2-oxo-1-(propan-2-yl)-1,2-dihydroquinolin-3-yl]oxy}-N-methylacetamide] | – | – | IC50: < 10 nM; Dmax (T47D): ≥ 70%
CNC(=O)COc1cc2cc(Nc3nc(N4CCC(OC5CCN(c6cccc7c6C(=O)N(C6CCC(=O)NC6=O)C7=O)CC5)CC4)ncc3Cl)ccc2n(C)c1=O (centres unmarked) [compound 264, 2-((6-((5-chloro-2-(4-((1-(2-(2,6-dioxopiperidin-3-yl)-1,3-dioxoisoindolin-4-yl)piperidin-4-yl)oxy)piperidin-1-yl)pyrimidin-4-yl)amino)-1-methyl-2-oxo-1,2-dihydroquinolin-3-yl)oxy)-N-methylacetamide] | – | – | IC50: < 10 nM; Dmax (T47D): ≥ 70%
CNC(=O)COc1cc2cc(Nc3nc(N4CCC(CN5CCC(c6cccc(N7CCC(=O)NC7=O)c6)CC5)CC4)ncc3Cl)ccc2n(C(C)C)c1=O [compound 416, 2-{[6-({5-chloro-2-[4-({4-[3-(2,4-dioxo-1,3-diazinan-1-yl)phenyl]piperidin-1-yl}methyl)piperidin-1-yl]pyrimidin-4-yl}amino)-2-oxo-1-(propan-2-yl)-1,2-dihydroquinolin-3-yl]oxy}-N-methylacetamide] | – | ≥ 100 nM | –
O=C1CCC(N2C(=O)c3ccc(N4CCN(CC5CCN(c6cc(Nc7ccc8c(c7)CCC(=O)N8)c(Cl)cc6[N+](=O)[O-])CC5)CC4)cc3C2=O)C(=O)N1 (centres unmarked) [compound 92, 5-(4-((1-(4-chloro-2-nitro-5-((2-oxo-1,2,3,4-tetrahydroquinolin-6-yl)amino)phenyl)piperidin-4-yl)methyl)piperazin-1-yl)-2-(2,6-dioxopiperidin-3-yl)isoindoline-1,3-dione] | – | – | DC50: > 100 nM
